Where a name gives a salt, the structure may show the parent alone.
Target: T1, elastase from human neutrophil (Homo sapiens, UniProt P08246)
T1 construct: elastase from human neutrophil; from tissue; host or cells: human neutrophil
T1 sequence (P08246 30-247 limits assumed): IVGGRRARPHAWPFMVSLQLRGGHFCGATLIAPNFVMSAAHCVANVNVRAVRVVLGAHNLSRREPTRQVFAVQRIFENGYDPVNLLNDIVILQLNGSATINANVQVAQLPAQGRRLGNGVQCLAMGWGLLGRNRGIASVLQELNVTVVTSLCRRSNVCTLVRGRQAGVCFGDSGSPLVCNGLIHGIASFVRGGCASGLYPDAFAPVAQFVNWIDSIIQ
Assay: Inhibitory effect on elastase (spectrophotometric, Suc-Ala-Pro-Ala-pNA substrate)
Type: biochemical
Details: 1 mM Suc-Ala-Pro-Ala-pNA, tris-hydrochloric acid pH 8.0, 37° C. for 30 minutes, absorbance 405 nm
Procedure: The reaction mixture consisted of 1 mM Suc-Ala-Pro-Ala-pNA (dissolving in N-methylpyrrolidone to the concentration of 100 mM, and then adding 1/100 amount of the solution to the reaction mixture.), 0.1 M buffer solution of tris-hydrochloric acid (pH 8.0), 0.2 M sodium chloride aqueous solution, the sample solution of various concentrations and enzyme solution in a final volume of 1.0 ml was incubated at 37° C. for 30 minutes.
Inhibition percentage of the test compounds was calculated by the following equation: [formula]

| IC50 [nM] | Compound |
| --- | --- |
| 200 | CSCCC(NC(=O)c1ccccc1NS(=O)(=O)c1ccc(OC(=O)C(C)(C)C)c(C)c1)C(=O)O (racemic) [2(68), N-[o-(3-methyl-4-pivaloyloxybenzene)sulfonylaminobenzoyl]-dl-methionine] |
| 770 | CC(C)(C)C(=O)Oc1ccc(S(N)(=O)=O)cc1 [1(2), p-sulfamoylphenyl ester of pivalic acid] |
| 190 | CC(C)(C)C(=O)Oc1ccc(S(=O)(=O)Nc2ccccn2)cc1 [1(14), p-[N-(α-pyridyl)sulfamoyl]phen-yl ester of pivalic acid] |
| 50 | CC(C)(C)C(=O)Oc1ccc(S(=O)(=O)n2ccnc2)cc1 [1(12), p-[(1-imidazolyl)sulfonyl]phenyl ester of pivalic acid] |
| 24 | CCCSc1ccc(NS(=O)(=O)c2ccc(OC(=O)C(C)(C)C)cc2)c(C(=O)NCC(=O)O)c1 [2(87), N-[2-(p-pivaloyloxybenzene)sulfonylamino-5-propylthiobenzoyl] glycine] |
| 21 | CSc1ccc(NS(=O)(=O)c2ccc(OC(=O)C(C)(C)C)cc2)c(C(=O)NCC(=O)O)c1 [2(80), N-[5-methylthio-2-(p-pivaloyoxy-benzene)sulfonylaminobenzoyl] glycine] |
| 48 | CC(=O)Oc1ccc(N(S(=O)(=O)c2ccc(OC(=O)C(C)(C)C)cc2)S(=O)(=O)c2ccc(OC(=O)C(C)(C)C)cc2)cc1 [1(15)] |
| 23 | CC(C)(C)C(=O)Oc1ccc(S(=O)(=O)Nc2ccccc2C(=O)O)cc1 [5(3), p-[N-(o-carboxyphenyl)sulfamoyl] phenyl ester of pivalic acid] |
| 640 | Cc1cc(S(=O)(=O)Nc2ccccc2OCCCC(=O)O)ccc1OC(=O)C(C)(C)C [2(51), 2-methyl-4-[N-(o-carboxypropoxy-phenyl)sulfamoyl]phenyl ester of pivalic acid] |
| 53 | CC(C)(C)NS(=O)(=O)c1ccc(OC(=O)C(C)(C)C)cc1 [2(5), p-(N-tert-butylsulfamoyl)phenyl ester of pivalic acid] |
| 30 | CC(C)(C)C(=O)Oc1ccc(S(=O)(=O)Nc2ccc(Cl)cc2)cc1 [1(8), p-[N-(4-chlorophenyl)sulfamoyl] phenyl ester of pivalic acid] |
| 42 | CC(C)(C)C(=O)Oc1ccc(S(=O)(=O)NC2CCCCC2)cc1 [1(3), p-(N-cyclohexylsulfamoyl)phenyl ester of pivalic acid] |
| 150 | Cc1cc(S(=O)(=O)Nc2cccc3c2OC(C(=O)O)CO3)ccc1OC(=O)C(C)(C)C (stereo not shown) [2(49), 2-methyl-4-[N-(1,4-dioxa-2-carboxy-8-yl-naphthalene)sulfamoyl]phenyl ester of pivalic] |
| 520 | Cc1cc(S(=O)(=O)Nc2ccccc2C(=O)N[C@@H](CCCCN)C(=O)O)ccc1OC(=O)C(C)(C)C [2(69), N-[o-(3-methyl-4-pivaloyloxybenzene)sulfonylaminobenzoyl]-L-lysine. hydrochloride] |
| 72 | CCN(CC)C(=O)COC(=O)c1ccccc1NS(=O)(=O)c1ccc(OC(=O)C(C)(C)C)c(C)c1 [2(38), 2-methyl-4-[N-(o-(N,N-diethyl-carbamoylmethoxycarbonyl)phehyl)sulfamoyl]phenyl ester of pivalic acid] |
| 31 | CN(c1ccc(Br)cc1)S(=O)(=O)c1ccc(OC(=O)C(C)(C)C)cc1 [Example 1, p-[N-(p-bromophenyl)-N-methylsulfamoyl] phenyl ester of pivalic] |
| 410 | Cc1cc(S(=O)(=O)Nc2ccccc2C(=O)N[C@@H](Cc2ccccc2)C(=O)O)ccc1OC(=O)C(C)(C)C [2(67), N-[o-(3-methyl-4-pivaloyloxybenzene)sulfonylaminobenzoyl]-L-phenylalanine] |
| 72 | CC(C)(C)C(=O)Oc1ccc(S(=O)(=O)NCCc2ccccc2)cc1 [4(5), p-(N-phenethylsulfamoyl)phenyl ester of pivalic acid] |
| 690 | Cc1cc(S(=O)(=O)Nc2ccccc2C(=O)N2CCC[C@H]2C(=O)O)ccc1OC(=O)C(C)(C)C [2(62), 2-methyl-4-[N-(2-prolylcarbonylphenyl)sulfamoyl] phenyl ester of pivalic acid] |

From patent US5403850A, “Derivatives of P-substituted phenyl ester of pivalic acid” (Ono Pharmaceutical Co., Ltd., priority 1988, dated 1995)
